Test results as given in patent US20140316119A1, “COMPOSITION FOR IMPROVING BIOMETABOLISM PARAMETER” (MATSUTANI CHEMICAL INDUSTRY CO., LTD., priority 2011, published 2014).

Key:
[1] = tested on: γ-GTP, ALT, ALP, and a uric acid level; test: Clinical trial, 12-week D-psicose ingestion (Example 1); type: in vivo, human
Description: Increasing incidence of lifestyle-related diseases, diabetes in particular, has been a problem in Japan. Clinical trials were conducted with recruited diabetic subjects, and biometabolism parameter changes due to D-psicose were investigated. The recruited subjects consisted of diabetes borderline subjects (12 subjects with fasting glucose levels of 110 to 126 mg/dl), and diabetes patients (6 type 2 diabetes patients undergoing drug treatment) (all subjects, males and females, were at least 20 years of age at the time of informed consent). Five grams of D-psicose was ingested per meal for 12 weeks. The D-psicose was purchased from Izumoring Co., Ltd. The subjects were tested after 0, 2, 4, 8, and 12 weeks from the start of the ingestion, and after 4 weeks from the end of the ingestion period (week 16, post-ingestion observation). The subjects were fasted after the dinner served on the day before the testing date. The subjects were measured for γ-GTP, ALT, ALP, and a uric acid level using the service of BML Inc. A paired t-test was used for statistical comparison before and after the ingestion. In the figure, significant difference is given by *:0.05<P or **:0.01<P.

[2] = tested on: γ-GTP, ALT, and ALP; test: Four-week D-psicose ingestion tests (Example 2); type: in vivo, human; conditions: 15 g once per day, after 2 weeks
Description: Four-week D-psicose ingestion tests were conducted with recruited healthy individuals (8 individuals with a […]) and diabetes borderline subjects (6 individuals with fasting glucose levels of 110 to 126 mg/dl, or HbA1c of 5.9 to 6.5%) (all subjects, males and females, were at least 20 years of age at the time of informed consent). Each subject ingested 15 g of D-psicose once per day. The D-psicose was purchased from Izumoring Co., Ltd. The subjects were tested after 0, 2, and 4 weeks from the start of the ingestion, and after 4 weeks from the end of the ingestion period (week 8, post-ingestion observation). The subjects were fasted after the dinner served on the day before the testing date. The subjects were measured for γ-GTP, ALT, and ALP by using the service of BML Inc. A paired t-test was used for statistical comparison before and after the ingestion. In the figure, significant difference is given by *:0.05<P or **:0.01<P.

[3] = oral ingestion, cited from earlier work
[4] = healthy individuals + diabetes borderline subjects
[5] = stratified: healthy individuals, P<0.01

O=C(CO)[C@H](O)[C@H](O)[C@H](O)CO [D-psicose]
significant decrease: ALP change ([1]; all subjects, 5 g D-psicose per meal, after 2 weeks from the ingestion) | uric acid level change ([1]; all subjects, 5 g per meal, after two weeks from the ingestion) | uric acid level change ([1]; stratified: diabetes borderline patients, after 2 weeks) | γ-GTP change ([1]; stratified: diabetes borderline patients, after 4 weeks, P<0.01) | γ-GTP change ([1]; stratified: diabetes patients, after 8 weeks, P<0.01) | ALP change [2, 5] | γ-GTP change [2, 5]
70%: share of ingested D-psicose directly absorbed but excreted into urine [3]
significantly decreased: γ-GTP change ([1]; all subjects (diabetes borderline + diabetes patients), 5 g D-psicose per meal, after 4 weeks from the ingestion, paired t-test vs before ingestion) | ALP change ([1]; stratified: diabetes borderline patients, after 2 weeks, P<0.05) | ALP change ([1]; stratified: diabetes patients, after 2 weeks, P<0.05) | ALP change [2, 4] | ALT change [2, 4] | γ-GTP change [2, 4]
lack of significant decrease: ALT change ([1]; 5 g per meal for 12 weeks)
30%: share of ingested D-psicose that reaches the large intestine, excreted into feces ([3]; essentially not utilized by enteric bacteria)
